Test results published in PubChem BioAssay AID248 (DTP/NCI, 2004).
Toxic doses and inconclusive results are not listed. Rule as the data show it: active = T/C of 150% or more; inactive = T/C below 125%.

Test system: L1210 leukemia ip in BDF1 mice, survival T/C
Assay: NCI In Vivo Anticancer Drug Screen. Data for tumor model L1210 Leukemia (intraperitoneal) in B6D2F1 (BDF1) mice
Conditions: endpoint: mean survival time, higher = longer survival
Summary of the method: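 Tumor was transplanted into mice, which were then dosed with test compound or vehicle alone. Survival was recorded for each group, and the treated figure was expressed relative to the control figure.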

[1] = dose: 100.0 mg/kg/injection, schedule: Q01DX009 (ip), vehicle: saline with Tween-80
[2] = dose: 200.0 mg/kg/injection, schedule: Q01DX009 (ip), vehicle: saline with Tween-80
[3] = dose: 100.0 mg/kg/injection, schedule: Q01DX001 (ip), vehicle: Klucel (hydroxypropylcellulose) (HPC)
[4] = dose: 200.0 mg/kg/injection, schedule: Q01DX001 (ip), vehicle: Klucel (hydroxypropylcellulose) (HPC)
[5] = dose: 400.0 mg/kg/injection, schedule: Q01DX001 (ip), vehicle: Klucel (hydroxypropylcellulose) (HPC)
[6] = dose: 100.0 mg/kg/injection, schedule: Q01DX001 (ip), vehicle: carboxymethylcellulose (CMC)
[7] = dose: 200.0 mg/kg/injection, schedule: Q01DX001 (ip), vehicle: carboxymethylcellulose (CMC)
[8] = dose: 50.0 mg/kg/injection, schedule: Q01DX001 (ip), vehicle: saline
[9] = dose: 100.0 mg/kg/injection, schedule: Q01DX001 (ip), vehicle: saline
[10] = dose: 200.0 mg/kg/injection, schedule: Q01DX001 (ip), vehicle: saline
[11] = dose: 400.0 mg/kg/injection, schedule: Q01DX001 (ip), vehicle: carboxymethylcellulose (CMC)
[12] = dose: 100.0 mg/kg/injection, schedule: Q04DX003 (ip), vehicle: Klucel (hydroxypropylcellulose) (HPC)
[13] = dose: 200.0 mg/kg/injection, schedule: Q04DX003 (ip), vehicle: Klucel (hydroxypropylcellulose) (HPC)
[14] = dose: 400.0 mg/kg/injection, schedule: Q04DX003 (ip), vehicle: Klucel (hydroxypropylcellulose) (HPC)
[15] = dose: 100.0 mg/kg/injection, schedule: Q01DX009 (ip), vehicle: Klucel (hydroxypropylcellulose) (HPC)
[16] = dose: 200.0 mg/kg/injection, schedule: Q01DX009 (ip), vehicle: Klucel (hydroxypropylcellulose) (HPC)
[17] = dose: 400.0 mg/kg/injection, schedule: Q01DX009 (ip), vehicle: Klucel (hydroxypropylcellulose) (HPC)

Measured: T/C

Nc1ccc(OCCCCNC(=O)c2ccc(S(=O)(=O)F)cc2)c(Cl)c1
inactive: [1] 98 % of control | dose: 100.0 mg/kg/injection, schedule: Q04DX003 (ip), vehicle: saline with Tween-80 97 % of control | [2] 102 % of control | dose: 200.0 mg/kg/injection, schedule: Q04DX003 (ip), vehicle: saline with Tween-80 97 % of control | dose: 400.0 mg/kg/injection, schedule: Q04DX003 (ip), vehicle: saline with Tween-80 97 % of control

Cc1ccc(NC(=O)c2ccc(C(=O)Nc3ccc(C)cc3)cc2)cc1
inactive: dose: 56.0 mg/kg/injection, schedule: Q01DX Z (ip), vehicle: carboxymethylcellulose (CMC) 88 % of control | dose: 225.0 mg/kg/injection, schedule: Q01DX Z (ip), vehicle: carboxymethylcellulose (CMC) 92 % of control

COc1ccc(CC[n+]2cccc(C(C)=O)c2)cc1OC
inactive: dose: 75.0 mg/kg/injection, schedule: Q01DX001 (ip), vehicle: saline 103 % of control | dose: 150.0 mg/kg/injection, schedule: Q01DX001 (ip), vehicle: saline 106 % of control | dose: 300.0 mg/kg/injection, schedule: Q01DX001 (ip), vehicle: saline 113 % of control

CC(C)(C)OC(=O)C(C=O)N1C(=O)c2ccccc2C1=O (stereo unspecified)
inactive: [3] 94 % of control | dose: 100.0 mg/kg/injection, schedule: Q01DX009 (ip), vehicle: saline sonified 100 % of control | [4] 92 % of control | dose: 200.0 mg/kg/injection, schedule: Q01DX009 (ip), vehicle: saline sonified 94 % of control | [5] 100 % of control | dose: 400.0 mg/kg/injection, schedule: Q01DX009 (ip), vehicle: saline sonified 98 % of control

CC(C)(CCCCC(C)(C)NC(=O)Nc1ccc(Cl)c(Cl)c1)NC(=O)Nc1ccc(Cl)c(Cl)c1
inactive: [6] 92 % of control | [7] 87 % of control

COC(=O)C(=O)CC(=O)c1ccc(OC)cc1
inactive: dose: 100.0 mg/kg/injection, schedule: Q04DX002 (ip), vehicle: Klucel (hydroxypropylcellulose) (HPC) 103 % of control | dose: 200.0 mg/kg/injection, schedule: Q04DX002 (ip), vehicle: Klucel (hydroxypropylcellulose) (HPC) 95 % of control | dose: 400.0 mg/kg/injection, schedule: Q04DX002 (ip), vehicle: Klucel (hydroxypropylcellulose) (HPC) 100 % of control

NC(=S)N/N=C\c1ccc(/C=N/NC(N)=S)cc1
inactive: [8] 90 % of control | [9] 93 % of control | [10] 90 % of control

O=C1O/C(=C\c2ccccc2)c2c(Br)c(Br)c(Br)c(Br)c21
inactive: [6] 94 % of control | [7] 91 % of control | [11] 96 % of control

O=C1c2ccc([N+](=O)[O-])cc2-n2cccc21
inactive: [12] 95 % of control | [13] 104 % of control | [14] 98 % of control

OCCNc1ccc(C2=NCCO2)cc1
inactive: [1] 106 % of control | [2] 97 % of control | dose: 400.0 mg/kg/injection, schedule: Q01DX009 (ip), vehicle: saline with Tween-80 91 % of control

COc1cccc(/C=c2\[nH]c(=O)/c(=C/c3cccc(OC)c3OC)[nH]c2=O)c1OC
inactive: [15] 94 % of control | [12] 88 % of control | [16] 87 % of control | [13] 91 % of control | [17] 96 % of control | [14] 91 % of control

CN(N=Nc1ccccc1C(=O)NN)C1CCCCC1
inactive: dose: 100.0 mg/kg/injection, schedule: Q01DX009 (ip), vehicle: other 117 % of control | dose: 200.0 mg/kg/injection, schedule: Q01DX009 (ip), vehicle: other 114 % of control

CCC(O)C(C)(O)C(=O)O (stereo unspecified)
inactive: dose: 50.0 mg/kg/injection, schedule: Q01DX009 (ip), vehicle: saline with Tween-80 96 % of control | [1] 96 % of control | [2] 92 % of control

CC(=O)Nc1nc(Cl)c2ncn(C3OC(COC(=O)c4ccccc4)CC3OC(=O)c3ccccc3)c2n1 (stereo unspecified)
inactive: [8] 93 % of control | [9] 95 % of control | [10] 101 % of control | dose: 400.0 mg/kg/injection, schedule: Q01DX001 (ip), vehicle: saline 93 % of control

Oc1ccc(Cl)cc1C=Nc1cnc2ccccc2c1
inactive: [6] 88 % of control | [11] 101 % of control

CC(/C=C/C=C/c1ccccc1)=N\O
inactive: [15] 98 % of control | [16] 90 % of control | [17] 96 % of control

O=C1C(=O)c2ccccc2C(O)=C1c1ccc(Br)cc1
inactive: dose: 50.0 mg/kg/injection, schedule: Q01DX001 (ip), vehicle: carboxymethylcellulose (CMC) 120 % of control | [6] 103 % of control

COc1ccc(OC)c(C(=S)N2CCOCC2)c1
inactive: [3] 94 % of control | [12] 96 % of control | [4] 102 % of control | [13] 96 % of control | [5] 100 % of control | [14] 96 % of control
